# Results reported in ChEMBL document CHEMBL4184210, “Optimization of novel monobactams with activity against carbapenem-resistant Enterobacteriaceae - Identification of LYS228” (Bioorg Med Chem Lett, 2018).
# Tests used:
# Escherichia coli [1] = experiment: microbe, parasite or virus in culture
# Description: Antimicrobial activity against Escherichia coli expressing beta-lactamase PER-1 by CLSI broth microdilution method
# Escherichia coli [2] = experiment: microbe, parasite or virus in culture; remark: listed apart in the source
# Description: Antimicrobial activity against Escherichia coli expressing beta-lactamase Oxa-18 by CLSI broth microdilution method
# Escherichia coli [3] = experiment: microbe, parasite or virus in culture; remark: listed apart in the source
# Description: Antimicrobial activity against Escherichia coli expressing beta-lactamase Oxa-225 by CLSI broth microdilution method
# Escherichia coli [4] = experiment: microbe, parasite or virus in culture; remark: listed apart in the source
# Description: Antimicrobial activity against Escherichia coli expressing beta-lactamase PER-2 by CLSI broth microdilution method
# Escherichia coli [5] = experiment: microbe, parasite or virus in culture; remark: listed apart in the source
# Description: Antimicrobial activity against Escherichia coli expressing beta-lactamase TEM-10 by CLSI broth microdilution method
# Escherichia coli [6] = experiment: microbe, parasite or virus in culture; remark: listed apart in the source
# Description: Antimicrobial activity against Escherichia coli expressing beta-lactamase TEM-121 by CLSI broth microdilution method
# Escherichia coli [7] = experiment: Antimicrobial activity against Escherichia coli expressing beta-lactamase NDM-5 by CLSI broth microdilution method; assay type: functional
# Escherichia coli [8] = experiment: microbe, parasite or virus in culture; remark: listed apart in the source
# Description: Antimicrobial activity against Escherichia coli expressing beta-lactamase KPC-8 by CLSI broth microdilution method
# Escherichia coli [9] = experiment: microbe, parasite or virus in culture; remark: listed apart in the source
# Description: Antimicrobial activity against Escherichia coli expressing beta-lactamase GIM-1 by CLSI broth microdilution method
# Escherichia coli [10] = experiment: Antimicrobial activity against Escherichia coli expressing beta-lactamase KPC-2 by CLSI broth microdilution method; assay type: functional
# Escherichia coli [11] = experiment: microbe, parasite or virus in culture; remark: listed apart in the source
# Description: Antimicrobial activity against Escherichia coli expressing beta-lactamase CTXM-15 by CLSI broth microdilution method
# Escherichia coli [12] = experiment: microbe, parasite or virus in culture; remark: listed apart in the source
# Description: Antimicrobial activity against Escherichia coli expressing beta-lactamase IMI-1 by CLSI broth microdilution method
# Escherichia coli [13] = experiment: microbe, parasite or virus in culture; remark: listed apart in the source
# Description: Antimicrobial activity against Escherichia coli expressing beta-lactamase MIR-1 by CLSI broth microdilution method
# Escherichia coli [14] = experiment: microbe, parasite or virus in culture; remark: listed apart in the source
# Description: Antimicrobial activity against Escherichia coli expressing beta-lactamase KPC-3 by CLSI broth microdilution method
# Escherichia coli [15] = experiment: microbe, parasite or virus in culture; remark: listed apart in the source
# Description: Antimicrobial activity against Escherichia coli expressing beta-lactamase Oxa-146 by CLSI broth microdilution method
# Escherichia coli [16] = experiment: microbe, parasite or virus in culture; remark: listed apart in the source
# Description: Antimicrobial activity against Escherichia coli expressing beta-lactamase P99 by CLSI broth microdilution method
# Escherichia coli [17] = experiment: microbe, parasite or virus in culture; remark: listed apart in the source
# Description: Antimicrobial activity against Escherichia coli expressing beta-lactamase GES-1 by CLSI broth microdilution method
# Escherichia coli [18] = experiment: microbe, parasite or virus in culture; remark: listed apart in the source
# Description: Antimicrobial activity against Escherichia coli expressing beta-lactamase VIM-1 by CLSI broth microdilution method
# Escherichia coli [19] = experiment: Antimicrobial activity against Escherichia coli expressing beta-lactamase TEM-1 by CLSI broth microdilution method; assay type: functional
# Escherichia coli [20] = experiment: microbe, parasite or virus in culture; remark: listed apart in the source
# Description: Antimicrobial activity against Escherichia coli expressing beta-lactamase Oxa-51 by CLSI broth microdilution method
# Escherichia coli [21] = experiment: microbe, parasite or virus in culture; remark: listed apart in the source
# Description: Antimicrobial activity against Escherichia coli expressing beta-lactamase PER-4 by CLSI broth microdilution method
# Escherichia coli [22] = experiment: microbe, parasite or virus in culture; remark: listed apart in the source
# Description: Antimicrobial activity against Escherichia coli expressing beta-lactamase VEB-7 by CLSI broth microdilution method
# Escherichia coli [23] = experiment: microbe, parasite or virus in culture; remark: listed apart in the source
# Description: Antimicrobial activity against Escherichia coli expressing beta-lactamase DHA by CLSI broth microdilution method
# Escherichia coli [24] = experiment: microbe, parasite or virus in culture; remark: listed apart in the source
# Description: Antimicrobial activity against Escherichia coli expressing beta-lactamase AmpC by CLSI broth microdilution method
# Escherichia coli [25] = experiment: microbe, parasite or virus in culture; remark: listed apart in the source
# Description: Antimicrobial activity against Escherichia coli expressing beta-lactamase Oxa-160 by CLSI broth microdilution method
# Escherichia coli [26] = experiment: microbe, parasite or virus in culture; remark: listed apart in the source
# Description: Antimicrobial activity against Escherichia coli expressing beta-lactamase CTXM-3 by CLSI broth microdilution method
# Escherichia coli [27] = experiment: microbe, parasite or virus in culture; remark: listed apart in the source
# Description: Antimicrobial activity against Escherichia coli expressing beta-lactamase Oxa-23 by CLSI broth microdilution method
# Escherichia coli [28] = experiment: microbe, parasite or virus in culture; remark: listed apart in the source
# Description: Antimicrobial activity against Escherichia coli expressing beta-lactamase Oxa-40 by CLSI broth microdilution method
# Escherichia coli [29] = experiment: microbe, parasite or virus in culture; remark: listed apart in the source
# Description: Antimicrobial activity against Escherichia coli expressing beta-lactamase IMP-1 by CLSI broth microdilution method
# Escherichia coli [30] = experiment: microbe, parasite or virus in culture; remark: listed apart in the source
# Description: Antimicrobial activity against Escherichia coli expressing beta-lactamase TEM-47 by CLSI broth microdilution method
# Escherichia coli [31] = experiment: microbe, parasite or virus in culture; remark: listed apart in the source
# Description: Antimicrobial activity against Escherichia coli expressing beta-lactamase SPM-1 by CLSI broth microdilution method
# Escherichia coli [32] = experiment: microbe, parasite or virus in culture; remark: listed apart in the source
# Description: Antimicrobial activity against Escherichia coli expressing beta-lactamase CMY-2 by CLSI broth microdilution method
# Escherichia coli [33] = experiment: microbe, parasite or virus in culture; remark: listed apart in the source
# Description: Antimicrobial activity against Escherichia coli expressing beta-lactamase SHV-12 by CLSI broth microdilution method
# Escherichia coli [34] = experiment: microbe, parasite or virus in culture; remark: listed apart in the source
# Description: Antimicrobial activity against Escherichia coli expressing beta-lactamase TEM-24 by CLSI broth microdilution method
# Escherichia coli [35] = experiment: Antimicrobial activity against Escherichia coli expressing beta-lactamase NDM-1 by CLSI broth microdilution method; assay type: functional
# Escherichia coli [36] = experiment: microbe, parasite or virus in culture; remark: listed apart in the source
# Description: Antimicrobial activity against Escherichia coli expressing beta-lactamase Oxa-48 by CLSI broth microdilution method
# Escherichia coli [37] = experiment: microbe, parasite or virus in culture; remark: listed apart in the source
# Description: Antimicrobial activity against wild type Escherichia coli by CLSI broth microdilution method
# Escherichia coli [38] = experiment: microbe, parasite or virus in culture; remark: listed apart in the source
# Description: Antimicrobial activity against Escherichia coli expressing beta-lactamase TEM-16 by CLSI broth microdilution method
# Escherichia coli [39] = experiment: microbe, parasite or virus in culture; remark: listed apart in the source
# Description: Antimicrobial activity against Escherichia coli expressing beta-lactamase VEB-4 by CLSI broth microdilution method
# Escherichia coli [40] = experiment: microbe, parasite or virus in culture; remark: listed apart in the source
# Description: Antimicrobial activity against Escherichia coli expressing beta-lactamase SME-1 by CLSI broth microdilution method
# Escherichia coli [41] = experiment: microbe, parasite or virus in culture; remark: listed apart in the source
# Description: Antimicrobial activity against Escherichia coli expressing beta-lactamase Oxa-181 by CLSI broth microdilution method
# Escherichia coli [42] = experiment: microbe, parasite or virus in culture; remark: listed apart in the source
# Description: Antimicrobial activity against Escherichia coli expressing beta-lactamase NMC-A by CLSI broth microdilution method
# Escherichia coli [43] = experiment: Antimicrobial activity against Escherichia coli expressing beta-lactamase VEB-1 by CLSI broth microdilution method; assay type: functional
# Escherichia coli [44] = experiment: microbe, parasite or virus in culture; remark: listed apart in the source
# Description: Antimicrobial activity against Escherichia coli expressing beta-lactamase KPC-4 by CLSI broth microdilution method
# Escherichia coli [45] = experiment: microbe, parasite or virus in culture; remark: listed apart in the source
# Description: Antimicrobial activity against Escherichia coli expressing beta-lactamase Oxa-10 by CLSI broth microdilution method
# Pseudomonas aeruginosa [46] = experiment: Antimicrobial activity against Pseudomonas aeruginosa expressing delta-mexB/mexXY/delta-ampDh2/ delta-ampD by CLSI broth microdilution method; assay type: functional
# Pseudomonas aeruginosa [47] = experiment: Antimicrobial activity against Pseudomonas aeruginosa expressing delta-mexB/delta-mexXY/delta-mexCD and delta-ampC mutant by CLSI broth microdilution method; assay type: functional
# Pseudomonas aeruginosa [48] = experiment: Antimicrobial activity against Pseudomonas aeruginosa ATCC 27853 by CLSI broth microdilution method; assay type: functional
# Pseudomonas aeruginosa [49] = experiment: Antimicrobial activity against Pseudomonas aeruginosa expressing nalB/delta-mexXY/delta-mexCDoprJ/delta-ampC by CLSI broth microdilution method; assay type: functional
compound,measurement,setting,value
CC1(C)[C@H](NC(=O)/C(=N\OCc2cc(=O)c(O)cn2O)c2csc(N)n2)C(=O)N1OS(=O)(=O)O (stereo in doubt),MIC,Escherichia coli [1],16 µg/mL
same,MIC,Escherichia coli [2],16 µg/mL
same,MIC,Escherichia coli [3],2 µg/mL
same,MIC,Escherichia coli [4],> 64 µg/mL
same,MIC,Escherichia coli [5],> 64 µg/mL
same,MIC,Escherichia coli [6],8 µg/mL
same,MIC,Escherichia coli [7],0.125 µg/mL
same,MIC,Escherichia coli [8],8 µg/mL
same,MIC,Escherichia coli [9],≤ 0.06 µg/mL
same,MIC,Escherichia coli [10],0.5 µg/mL
same,MIC,Escherichia coli [11],1 µg/mL
same,MIC,Escherichia coli [12],0.25 µg/mL
same,MIC,Escherichia coli [13],2 µg/mL
same,MIC,Escherichia coli [14],0.5 µg/mL
same,MIC,Escherichia coli [15],2 µg/mL
same,MIC,Escherichia coli [16],0.5 µg/mL
same,MIC,Escherichia coli [17],0.25 µg/mL
same,MIC,Escherichia coli [18],≤ 0.06 µg/mL
same,MIC,Escherichia coli [19],0.5 µg/mL
same,MIC,Escherichia coli [20],0.06 µg/mL
same,MIC,Escherichia coli [21],0.5 µg/mL
same,MIC,Escherichia coli [22],2 µg/mL
same,MIC,Escherichia coli [23],0.25 µg/mL
same,MIC,Escherichia coli [24],0.5 µg/mL
same,MIC,Escherichia coli [25],8 µg/mL
same,MIC,Escherichia coli [26],0.25 µg/mL
same,MIC,Escherichia coli [27],0.06 µg/mL
same,MIC,Escherichia coli [28],≤ 0.03 µg/mL
same,MIC,Escherichia coli [29],0.25 µg/mL
same,MIC,Escherichia coli [30],2 µg/mL
same,MIC,Escherichia coli [31],≤ 0.06 µg/mL
same,MIC,Escherichia coli [32],0.25 µg/mL
same,MIC,Escherichia coli [33],> 32 µg/mL
same,MIC,Escherichia coli [34],16 µg/mL
same,MIC,Escherichia coli [35],0.25 µg/mL
same,MIC,Escherichia coli [36],0.125 µg/mL
same,MIC,Escherichia coli [37],0.25 µg/mL
same,MIC,Escherichia coli [38],16 µg/mL
same,MIC,Escherichia coli [39],8 µg/mL
same,MIC,Escherichia coli [40],0.5 µg/mL
same,MIC,Escherichia coli [41],0.125 µg/mL
same,MIC,Escherichia coli [42],0.25 µg/mL
same,MIC,Escherichia coli [43],16 µg/mL
same,MIC,Escherichia coli [44],32 µg/mL
same,MIC,Escherichia coli [45],0.125 µg/mL
CC(C)(O/N=C(\C(=O)N[C@@H]1C(=O)N(S(=O)(=O)O)[C@@H]1Cn1cncn1)c1nsc(N)n1)C(=O)O,MIC,Pseudomonas aeruginosa [46],> 64 µg/mL
same,MIC,Escherichia coli [5],8 µg/mL
same,MIC,Escherichia coli [10],2 µg/mL
same,MIC,Escherichia coli [11],1 µg/mL
same,MIC,Pseudomonas aeruginosa [47],1 µg/mL
same,MIC,Escherichia coli [24],32 µg/mL
same,MIC,Escherichia coli [32],16 µg/mL
same,MIC,Pseudomonas aeruginosa [48],32 µg/mL
same,MIC,Escherichia coli [33],8 µg/mL
same,MIC,Escherichia coli [37],1 µg/mL
same,MIC,Pseudomonas aeruginosa [49],> 64 µg/mL
CC(C)(O/N=C(\C(=O)N[C@@H]1C(=O)N2C(C(=O)[O-])=C(C[n+]3ccccc3)CS[C@H]12)c1csc(N)n1)C(=O)O [CEFTAZIDIME],MIC,Escherichia coli [1],> 64 µg/mL
same,MIC,Escherichia coli [2],> 64 µg/mL
same,MIC,Escherichia coli [3],1 µg/mL
same,MIC,Escherichia coli [4],> 64 µg/mL
same,MIC,Escherichia coli [5],> 64 µg/mL
same,MIC,Escherichia coli [6],64 µg/mL
same,MIC,Escherichia coli [7],> 64 µg/mL
same,MIC,Escherichia coli [8],> 64 µg/mL
same,MIC,Escherichia coli [9],4 µg/mL
same,MIC,Escherichia coli [10],8 µg/mL
same,MIC,Escherichia coli [11],8 µg/mL
same,MIC,Escherichia coli [12],0.25 µg/mL
same,MIC,Escherichia coli [13],8 µg/mL
same,MIC,Escherichia coli [14],32 µg/mL
same,MIC,Escherichia coli [15],8 µg/mL
same,MIC,Escherichia coli [16],8 µg/mL
same,MIC,Escherichia coli [17],64 µg/mL
same,MIC,Escherichia coli [18],> 64 µg/mL
same,MIC,Escherichia coli [19],0.25 µg/mL
same,MIC,Escherichia coli [20],0.125 µg/mL
same,MIC,Escherichia coli [21],> 64 µg/mL
same,MIC,Escherichia coli [22],> 64 µg/mL
same,MIC,Escherichia coli [23],16 µg/mL
same,MIC,Escherichia coli [24],8 µg/mL
same,MIC,Escherichia coli [25],0.5 µg/mL
same,MIC,Escherichia coli [26],2 µg/mL
same,MIC,Escherichia coli [27],0.125 µg/mL
same,MIC,Escherichia coli [28],0.125 µg/mL
same,MIC,Escherichia coli [29],> 64 µg/mL
same,MIC,Escherichia coli [30],4 µg/mL
same,MIC,Escherichia coli [31],> 64 µg/mL
same,MIC,Escherichia coli [32],64 µg/mL
same,MIC,Escherichia coli [33],> 64 µg/mL
same,MIC,Escherichia coli [34],> 64 µg/mL
same,MIC,Escherichia coli [35],> 64 µg/mL
same,MIC,Escherichia coli [36],0.25 µg/mL
same,MIC,Escherichia coli [37],0.125 µg/mL
same,MIC,Escherichia coli [38],64 µg/mL
same,MIC,Escherichia coli [39],> 64 µg/mL
same,MIC,Escherichia coli [40],0.5 µg/mL
same,MIC,Escherichia coli [41],0.25 µg/mL
same,MIC,Escherichia coli [42],0.25 µg/mL
same,MIC,Escherichia coli [43],> 64 µg/mL
same,MIC,Escherichia coli [44],> 64 µg/mL
same,MIC,Escherichia coli [45],0.125 µg/mL
